This note sets out measurements from patent publication EP2801357A1, “Carboxylated stilbenes for activating AMPK and sirtuins” (IMD Natural Solutions GmbH, priority 2013, dated 2014).

Data set [1] concerns normal human epidermal keratinocytes (NHEK). As to the kind of experiment: MTT reduction assay, cytotoxicity in NHEK. It counts as cell-based. The protocol: Culture conditions: 37 °C, 5 % CO2. Culture medium: Keratinocyte-SFM (serum-free medium) containing human recombinant epidermal growth factor (EGF 1-53) 0.25 ng/mL and bovine pituitary extract 25 µg/mL (Gibco; Cat. No. 17005-075), supplemented with gentamycin 25 µg/mL. Assay medium: Keratinocyte-SFM (Gibco; Cat. No. 10744-019), supplemented with gentamycin 25 µg/mL.
NHEK were seeded in 24-well plates (30.000 cells / well) and cultured in culture medium for 24 h and then in assay medium for another 24 h. Medium was then removed and replaced by assay medium containing the respective test compound or reference in defined concentrations.
Cytotoxicity was determined using the 3-(4,5-dimethylthiazol-2-yl)-2,5-diphenyltetrazoliumbromid (MTT) reduction assay (sse T. Mosmann (1983) J. Immunol. Methods. 65, pp. 55-63).
In general terms: Tetrazolium dyes change colour on reduction, which living cells bring about.

Data set [2] deals with T1, human sirtuin-1 (Sirt1) (Homo sapiens, UniProt Q96EB6).
T1 construct: purchased BioMol, Hamburg, Germany
T1 sequence (Q96EB6 1-747): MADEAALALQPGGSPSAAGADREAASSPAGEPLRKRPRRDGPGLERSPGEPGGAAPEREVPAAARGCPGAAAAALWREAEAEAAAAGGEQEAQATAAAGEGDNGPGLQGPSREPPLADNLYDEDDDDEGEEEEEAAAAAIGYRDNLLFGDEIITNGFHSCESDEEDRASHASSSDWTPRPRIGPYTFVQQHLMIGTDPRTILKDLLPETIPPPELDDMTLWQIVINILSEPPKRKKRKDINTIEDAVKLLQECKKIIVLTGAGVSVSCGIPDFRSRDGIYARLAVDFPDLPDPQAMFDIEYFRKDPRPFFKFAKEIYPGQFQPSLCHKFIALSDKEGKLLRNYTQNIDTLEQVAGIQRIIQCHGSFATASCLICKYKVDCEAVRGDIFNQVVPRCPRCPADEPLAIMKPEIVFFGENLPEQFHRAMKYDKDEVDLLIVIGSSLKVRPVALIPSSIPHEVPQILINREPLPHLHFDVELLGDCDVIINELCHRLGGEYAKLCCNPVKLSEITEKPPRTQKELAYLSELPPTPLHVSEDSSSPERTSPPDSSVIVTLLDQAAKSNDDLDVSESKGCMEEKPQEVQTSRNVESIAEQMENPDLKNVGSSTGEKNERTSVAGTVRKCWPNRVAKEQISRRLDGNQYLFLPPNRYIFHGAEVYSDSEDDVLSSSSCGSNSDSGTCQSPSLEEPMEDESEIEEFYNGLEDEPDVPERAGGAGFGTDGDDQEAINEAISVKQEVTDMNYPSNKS
Description: SIRT1 Fluorimetric Drug Discovery Kit, Sirt1 activation. It is filed as biochemical. The protocol:
Compounds were tested for Sirt1 activation using the SIRT1 Fluorimetric Drug Discovery Kit (BioMol, Hamburg, Germany), Testing was carried out in duplicate following the manufacturer's instructions. Assay medium: 50mM Tris-HCl pH 8.0, 137 mM NaCl, 2.7 mM KCI, 1 mM MgCl2, 1 mg/ml bovine serum albumin (BSA). Stock solutions of the test compounds (10 mM in DMSO) were used, yielding a final concentration of 10 µM in the assay plate. Readout was obtained by measuring the fluorescence in a microtiter plate reader (excitation: 380 nm; detection: 440 nm).
The agonistic effect on Sirt1 was determined at different concentrations. For this purpose, the test compound stock solutions were diluted to yield concentrations of 0.3, 1, 3, 10 and 30 µM, respectively, in the assay, which was performed as described above. The compound of structure (I-1) was selected for this experiment.
The selectivity of the agonistic effect of the compound of formula (I-1) on different sirtuin isoforms was investigated. For this purpose, in vitro testing was performed as described in Example 1 using the respective SIRT1 Fluorimetric Drug Discovery Kit, SIRT2 Fluorimetric Drug Discovery Kit, and SIRT3 Fluorimetric Drug Discovery Kit (each from BioMol, Hamburg, Germany). […] The dose-response effect is slightly lesser on Sirt3. Table 3: Activity on Sirt1

Like-named read-outs stand apart in the source and are kept apart here.

In the case of `CCOC(=O)c1c(O)cccc1/C=C/c1ccc(OCC)cc1` [(I-1)], the “cytotoxicity against NHEK” value in data set [1] is given as “no cytotoxicity”. The “Fold increase in sirt1 activity versus control” value in data set [2] (Example 1(a), 10 µM, trans-resveratrol as control (1.0)) was 23.9. Also, the remaining activity at 0.3 µM in data set [2] (Example 1(b), Table 2, 0.3 µM, read-out: Activity [% control]) is 147%; in data set [2] (Example 2, Table 3, 0.3 µM, read-out: Activity [% control]) it was 111%. Also, the remaining activity at 1 µM in data set [2] (Example 1(b), Table 2, 1.0 µM, read-out: Activity [% control]) worked out at 233%; in data set [2] (Example 2, Table 3, 1.0 µM, read-out: Activity [% control]), 121%. Besides, the remaining activity at 3 µM was 434% in data set [2] (Example 1(b), Table 2, 3.0 µM, read-out: Activity [% control]) and 168% in data set [2] (Example 2, Table 3, 3.0 µM, read-out: Activity [% control]). Also, the remaining activity at 10 µM in data set [2] (Example 1(b), Table 2, 10.0 µM, read-out: Activity [% control]) came to 626%; in data set [2] (Example 2, Table 3, 10.0 µM, read-out: Activity [% control]) it was 256%. Besides, the EC300 turned out to be 2.0 µM in data set [2] (Example 1(b), concentration that gave 3-times the basal response of the enzyme) and 12.9 µM in data set [2] (Example 2, Table 6, Sirt1). Further, the remaining activity at 30 µM in data set [2] (Example 2, Table 3, 30.0 µM, read-out: Activity [% control]) turned out to be 515%.
